Source: PubChem BioAssay (NCI)
Values joined by “and” are separate entries in the source; they are usually repeats but may differ in a detail not shown here. Identical values can stand only once.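 Method: 48-hour compound exposure of cells in 96-well plates, five concentrations, linear interpolation of endpoints. GI50 = concentration required for 50% inhibition of growth. At the TGI there is no net growth.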

Columns and labels:
Assay in all cases: growth of human tumour cells (NCI), 48 h
[1] = test system: HT29 colon
[2] = test system: HOP-92 NSCLC
[3] = test system: BT-549 breast
[4] = test system: CAKI-1 renal
[5] = test system: U251 CNS
[6] = test system: SK-MEL-5 melanoma
[7] = test system: NCI-H460 lung
[8] = test system: RXF 393 renal
[9] = test system: NCI-H23 lung
[10] = test system: SF-539 CNS

Compound	GI50 [1]	TGI [1]	GI50 [2]	TGI [2]	GI50 [3]	TGI [3]	GI50 [4]	TGI [4]	GI50 [5]	TGI [5]	GI50 [6]	TGI [6]	GI50 [7]	TGI [7]	GI50 [8]	TGI [8]	GI50 [9]	TGI [9]	GI50 [10]	TGI [10]
COc1c(C)cnc(Cn2cnc3c(Cl)nc(N)nc32)c1C	0.0654 µM	> 100 µM	0.467 µM	2.8 µM	1.43 µM	> 100 µM	0.397 µM	> 100 µM	0.415 µM	> 100 µM	0.557 µM	15.9 µM	0.0974 µM	> 100 µM	0.799 µM	> 100 µM	0.262 µM	19.8 µM	0.605 µM	> 100 µM
COc1cc2c(c(OC)c1OC)-c1c(c3ccc([N+](=O)[O-])cc3c(=O)n1CCCN=[N+]=[N-])C2=O	94 µM	> 100 µM	21.5 µM	80.2 µM	47.5 µM	> 100 µM	50.3 µM	> 100 µM	8.36 µM	23.3 µM	> 100 µM	> 100 µM	12.3 µM	> 100 µM	4.81 µM	47.3 µM	15.2 µM	43.6 µM	13.5 µM	43.1 µM
COc1ccc(C(=O)CC(Cl)=C(Cl)Cl)cc1	22 µM	83.5 µM	19.3 µM	53.7 µM	21.6 µM	57.3 µM	23.2 µM	53.5 µM	36 µM	> 100 µM	33.8 µM	> 100 µM	> 100 µM	> 100 µM	32 µM	97.1 µM	23.3 µM	47.1 µM	37.2 µM	> 100 µM
O=C1C2=C(Nc3cc([N+](=O)[O-])ccc3N2)OC1c1c[nH]c2ccc(COc3ccccc3)cc12 (stereo not given)	–	> 100 µM	–	> 100 µM	–	> 100 µM	–	> 100 µM	–	> 100 µM	–	> 100 µM	–	> 100 µM	–	> 100 µM	–	> 100 µM	–	> 100 µM
CC(CCC/C=C/CCCN(C)C(=N)N)CC(C)C1OC(=O)C(C)C(O)/C=C/C(C)C(O)C(C)C(O)C(C)C(O)CCCC(O)CC2(O)OC(CC(OC(=O)CC(=O)O)CC(O)CC(O)C(C)C(O)/C=C/C=C/C1C)CC(O)C2O (stereo not given)	1.76 µM and 3 µg/mL	3.41 µM and 11.7 µg/mL	1.92 µM and 9.74 µg/mL	6.57 µM and 20.1 µg/mL	2.19 µM and 3.16 µg/mL	4.03 µM and 12 µg/mL	2.01 µM and 7.96 µg/mL	5.24 µM and 17.7 µg/mL	3.37 µM and 3.3 µg/mL	11.6 µM and 14.9 µg/mL	1.75 µM and 1.48 µg/mL	3.18 µM and 3.33 µg/mL	2.09 µM and 3.95 µg/mL	3.95 µM and 14.5 µg/mL	1.98 µM and 1.89 µg/mL	3.71 µM and 4.59 µg/mL	5.99 µM and 13.7 µg/mL	20.8 µM and 29.4 µg/mL	1.73 µM and 2.67 µg/mL	3.64 µM and 12.5 µg/mL
Cc1nc2cc(NC(=O)CN3CCN(CCN4C(=O)c5cccc6cccc(c56)C4=O)CC3)ccc2s1	3.39 µM	19.6 µM	2.13 µM	9.05 µM	4.86 µM	24.1 µM	4.32 µM	> 100 µM	4.37 µM	18.9 µM	2.73 µM	10.9 µM	3.44 µM	13.1 µM	5.46 µM	25.4 µM	6.6 µM	38.2 µM	7.59 µM	> 100 µM
CCCCCCCCCCCCOC1C(C(COC2OC(C(O)CO)C3OC(C)(C)OC23)OC(=O)Nc2ccc([N+](=O)[O-])cc2)OC2OC(C)(C)OC21 (stereo not given)	2.57 µM	7.94 µM	3.82 µM	14.7 µM	1.9 µM	5.57 µM	2.55 µM	7.28 µM	1.85 µM	3.59 µM	1.71 µM	3.11 µM	3.74 µM	13.5 µM	2.71 µM	6.57 µM	12.6 µM	28.2 µM	4.15 µM	14.7 µM
COc1cc(OC)c(-c2oc3ccccc3c(=O)c2O)c(OC)c1	–	> 100 µM	–	> 100 µM	–	> 100 µM	–	> 40.5 µM	–	> 100 µM	–	> 100 µM	–	> 100 µM	–	37.7 µM	–	> 100 µM	–	> 100 µM
O=C(NC(c1ccccc1)C(O)C(=O)OCc1ccc2c(c1)C(=O)c1ccccc1C2=O)c1ccccc1 (stereo not given)	–	> 85.2 µM	–	7.91 µM	–	> 100 µM	–	20.1 µM	–	18.3 µM	–	40.3 µM	–	42.8 µM	–	8.57 µM	–	34.5 µM	–	20.6 µM
Oc1ccc(-c2nc(-c3ccc4oc5ccc(-c6[nH]c(-c7ccc(O)cc7)nc6-c6ccccc6)cc5c4c3)c(-c3ccccc3)[nH]2)cc1	3.8 µM	11.3 µM	2.19 µM	6.53 µM	18.8 µM	58.2 µM	13.7 µM	41.7 µM	2.93 µM	15 µM	4.46 µM	75.5 µM	3.01 µM	9.85 µM	2.12 µM	5.45 µM	5.2 µM	33.7 µM	4.17 µM	21.3 µM
CCN(CC)CCC(CNc1c2ccc(Cl)cc2nc2ccc(OC)cc12)c1ccccc1 (stereo not given)	0.219 µM	0.664 µM	1.79 µM	3.86 µM	1.97 µM	3.78 µM	1.3 µM	3.62 µM	1.56 µM	3.21 µM	1.7 µM	3.11 µM	0.768 µM	3.99 µM	1.23 µM	2.68 µM	1.5 µM	3.55 µM	1.49 µM	3.16 µM
CC(C)(O)C1CC(=O)C(C)(C2C(O)CC3(C)C4CC=C5C(CCC(O)C5(C)C)C4(C)C(=O)CC23C)O1 (stereo not given)	–	> 100 µM	–	> 100 µM	–	> 100 µM	–	> 100 µM	–	> 100 µM	–	> 100 µM	–	> 100 µM	–	> 100 µM	–	> 100 µM	–	> 100 µM
N#Cc1ccccc1C#C/C=C\C#Cc1cnccn1	8.72 µM	> 100 µM	–	> 28.4 µM	35.4 µM	> 100 µM	6.95 µM	> 23.4 µM	30.5 µM	> 100 µM	17 µM	45.4 µM	39.4 µM	> 100 µM	> 37 µM	> 74.1 µM	7.04 µM	22.4 µM	9.5 µM	46.2 µM
COc1ccc(/C=C2\CC(C)CC3C2=NN(C(C)=O)C3c2ccc(OC)c(OC)c2)cc1OC (stereo not given)	22.4 µM	> 100 µM	13.8 µM	33.5 µM	19 µM	37.9 µM	53.3 µM	> 100 µM	14.3 µM	28 µM	12.7 µM	27.4 µM	15.5 µM	34.9 µM	17.9 µM	39 µM	14.9 µM	29.3 µM	20.2 µM	37.8 µM
C[CH2][Ge]1([CH2]C)[CH2]CC2(CCN(CCCN(C)C)C2)C[CH2]1	0.4 µM and 2.24 µM	1.59 µM and 6.05 µM	0.201 µM and 1 µM	1.65 µM and 1.34 µM	1.69 µM	3.23 µM	1.61 µM and 3.04 µM	3.31 µM and 8.49 µM	1.73 µM and 5.49 µM	3.69 µM and 9.77 µM	0.444 µM and 1.44 µM	1.13 µM and 2.22 µM	1.44 µM and 2.53 µM	3.05 µM and 4.6 µM	1.71 µM and 1.21 µM	4.29 µM and 3.4 µM	2.47 µM and 4.11 µM	8.19 µM and 8.41 µM	1.78 µM and 1.71 µM	3.54 µM and 3.34 µM
C/C=C\C(C)=C/C(C)C(=O)CC(O)CC1CC(=O)NC(=O)C1 (stereo not given)	–	> 100 µM	–	> 100 µM	–	> 100 µM	–	> 67.5 µM	–	> 100 µM	–	> 100 µM	–	> 100 µM	–	> 100 µM	–	> 100 µM	–	> 100 µM
CC(=O)OC1C(OC/C2=C/C3[C@@H](C(C)C)CC=C(C)[C@@H]3CC(OC(=O)/C=C/c3cn(C)cn3)[C@]3(C)C=C[C@@]2(O)O3)OCC(O)C1O (stereo not given in full)	0.0124 µM	> 50 µM	1.02 µM	> 50 µM	0.0129 µM	0.136 µM	0.196 µM	> 13.2 µM	0.016 µM	> 30.3 µM	0.0165 µM	–	0.00928 µM	–	0.0149 µM	0.0741 µM	0.0227 µM	> 50 µM	0.0123 µM	0.0598 µM
Cc1ccc(S(=O)(=O)NC(CCCCN)C(=O)CCl)cc1 (stereo not given)	> 100 µM	> 100 µM	20.2 µM	67.1 µM	27.6 µM	89.6 µM	37.8 µM	> 100 µM	29 µM	> 100 µM	47.8 µM	> 100 µM	> 100 µM	> 100 µM	54.2 µM	> 100 µM	> 100 µM	> 100 µM	22.3 µM	53.6 µM
Cn1c(N)c(N=Nc2ccc(S(N)(=O)=O)cc2)c(=O)n(C)c1=O	–	> 100 µM	–	> 100 µM	–	> 100 µM	–	> 100 µM	–	> 100 µM	–	> 100 µM	–	> 100 µM	–	> 100 µM	–	> 100 µM	–	> 100 µM
C=C1C(=O)O[C@H]2[C@H]1CC/C(Cn1cc(CNC(=O)c3cc4ccccc4[nH]3)nn1)=C\CC[C@@]1(C)O[C@@H]21	2.85 µM	10.1 µM	1.53 µM	3.16 µM	4.09 µM	16.5 µM	2.26 µM	12.2 µM	8.24 µM	21.8 µM	8.1 µM	23.4 µM	20.1 µM	41 µM	2.16 µM	4.28 µM	14.3 µM	34.5 µM	2.85 µM	8.65 µM
COc1cc(C2C3=C(COC3=O)N(CCO)c3cc4c(cc32)CCC4)cc(OC)c1OC (stereo not given)	0.0975 µM	–	0.862 µM	> 25.3 µM	0.136 µM	> 18.4 µM	0.484 µM	> 32.5 µM	0.125 µM	> 32.5 µM	0.0956 µM	0.451 µM	0.106 µM	1.1 µM	0.0446 µM	0.141 µM	0.0903 µM	–	0.091 µM	0.663 µM
COc1cc2c(cc1Nc1nc(Nc3ccsc3C(N)=O)c3cc[nH]c3n1)N(C(=O)CN(C)C)CCC2	< 0.0025 µM	0.681 µM	< 0.0025 µM	1.19 µM	2.38 µM	6.43 µM	3.64 µM	10.2 µM	1.14 µM	12.8 µM	0.383 µM	3.2 µM	0.498 µM	3.21 µM	0.612 µM	3.34 µM	0.343 µM	8.55 µM	0.983 µM	4.16 µM
C#Cc1cccc(NC(=O)Nc2cccc(NC(=O)CCl)c2)c1	17.8 µM	53.5 µM	> 82.5 µM	> 82.5 µM	16.3 µM	> 82.5 µM	> 82.5 µM	> 82.5 µM	16.4 µM	39.3 µM	15.7 µM	36.2 µM	27.3 µM	> 82.5 µM	13.4 µM	63.6 µM	14 µM	31.2 µM	14 µM	27.8 µM
O=C1/C(=C/c2ccc([N+](=O)[O-])s2)Oc2ccc(Cl)cc21	2.21 µM	5.49 µM	0.176 µM	0.519 µM	0.248 µM	0.682 µM	2.05 µM	6.68 µM	0.263 µM	0.694 µM	0.343 µM	0.86 µM	0.675 µM	2.18 µM	0.375 µM	1.11 µM	0.592 µM	1.82 µM	0.219 µM	0.583 µM
COc1ccc(C2CC(c3ccc(OC)c(OC)c3)=NN2C(=O)c2cc(OC)c(OC)c(OC)c2)cc1 (stereo not given)	3.07 µM	> 100 µM	0.168 µM	0.841 µM	3.96 µM	> 46.7 µM	0.473 µM	> 24.9 µM	2.53 µM	> 100 µM	0.558 µM	4.83 µM	3.54 µM	> 100 µM	0.344 µM	3.05 µM	3.46 µM	> 100 µM	1.36 µM	> 21.7 µM
